From ChEMBL document CHEMBL1201862, “PubChem BioAssay data set” (2004)
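Following 48 hours of exposure in 96-well plates, responses at five concentrations were used to interpolate endpoints linearly. GI50 marks 50% less growth.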 Activity calls are given as the source filed them. Rule as the data show it: active = GI50 up to about 1.1 µM and inactive = higher.

Columns and labels:
Assay in all cases: growth of human tumour cells (NCI), 48 h
[1] = tested on: 786-0
[2] = tested on: SK-OV-3
[3] = tested on: SR
[4] = tested on: SF-268
[5] = tested on: CCRF-CEM
[6] = tested on: DU-145
[7] = tested on: HOP-62
[8] = tested on: MDA-MB-231
[9] = tested on: CAKI-1
[10] = tested on: NCI/ADR-RES
[11] = tested on: OVCAR-3
[12] = tested on: T47D
[13] = tested on: NCI-H226
[14] = tested on: RXF 393
[15] = tested on: NCI-H23
[16] = tested on: HCC 2998
[17] = tested on: BT-549
[18] = tested on: KM12
[19] = tested on: HT-29

Measured: GI50

O=C1c2ccccc2S(=O)(=O)c2cc(-c3nn[nH]n3)ccc21 [DOXANTRAZOLE]
inactive: [1] > 100 µM | [2] > 100 µM | [3] > 100 µM | [4] > 100 µM | [5] > 100 µM | [6] > 100 µM | [7] > 100 µM | [8] > 100 µM | [9] > 87.3 µM | [10] > 100 µM | [11] > 100 µM | [12] > 76.4 µM | [13] > 100 µM | [14] > 100 µM | [15] > 100 µM | [16] > 100 µM | [17] > 100 µM | [18] > 100 µM | [19] > 100 µM

CN(C)/C=C(\C(=O)c1ccccc1)n1nc(-c2ccccc2)cc1-c1ccccc1
inactive: [1] > 10 µM | [2] > 10 µM | [3] > 10 µM | [4] > 10 µM | [5] > 10 µM | [6] > 10 µM | [7] > 10 µM | [8] > 10 µM | [9] > 10 µM | [10] > 10 µM | [11] > 10 µM | [12] > 10 µM | [13] > 10 µM | [14] > 10 µM | [15] > 10 µM | [16] > 10 µM | [17] > 10 µM | [18] > 10 µM | [19] > 10 µM

COc1ccc2c(c1)-c1c(c3cc(OC)ccc3n1CCCN(C)C)CC2
inactive: [1] 9.04 µM | [2] 16.2 µM | [3] 5.18 µM | [4] 10.7 µM | [5] 4.46 µM | [6] 16.2 µM | [7] 14.3 µM | [8] 13 µM | [9] 12.4 µM | [10] 12.7 µM | [11] 14.1 µM | [12] 5.36 µM | [13] 1.84 µM | [14] 6.93 µM | [15] 16.8 µM | [16] 3.13 µM | [17] 15.5 µM | [18] 7.93 µM | [19] 2.81 µM

O=[N+]([O-])/C(C(Cl)=C(Cl)Cl)=C(\N1CCCCC1)n1cncn1
inactive: [1] 20.4 µM | [2] 17.6 µM | [3] 3.99 µM | [4] 12.9 µM | [5] 3.79 µM | [6] 16.6 µM | [7] 19.6 µM | [8] 14.8 µM | [9] 10.6 µM | [10] 20.1 µM | [11] 16 µM | [12] 14.8 µM | [13] 18.3 µM | [14] 6.64 µM | [15] 15.2 µM | [16] 20 µM | [17] 17.5 µM | [18] 19.5 µM | [19] 17.7 µM
